{"source": "patent EP4725505A1", "about": "“PROPHYLACTIC AND/OR THERAPEUTIC AGENT FOR SKIN DISORDER ASSOCIATED WITH HISTONE DEACETYLASE 4 ABNORMALITY” (National University Corporation Kobe University, priority 2023, dated 2025)", "system": "HDAC4", "assay": "Improving action on expression of HDAC4 in UV-B-irradiated XP-A-iMCs (RT-PCR)", "assay_type": "cell-based, human", "conditions": "XP-A-iMCs irradiated with high-dose (150 J/m^2) UV-B, compound then added to cell medium, cultured for 24 hours, DMSO control", "method": "The XP-A-iMCs were seeded into a 60-millimeter dish, and were irradiated with high-dose (150 J/m^2) UV-B when the XP-A-iMCs became about 70% confluent. […] After that, the expression of HDAC4 was recognized by using a RT-PCR method.\nThe XP-A-iMCs were seeded into a 60-millimeter dish, and were irradiated with high-dose (150 J/m^2) UV-B when the XP-A-iMCs became about 70% confluent."}
{"smiles": "CC1=NN(c2ccc(C(=O)O)cc2)C(=O)C1=Cc1ccc(-c2cc(C)c(C)cc2[N+](=O)[O-])o1", "note": "[C-646]", "values": [{"measurement": "expression of HDAC4", "value": "significantly recovered"}]}
